The values below come from ChEMBL document CHEMBL1143567, “Hierarchical database screenings for HIV-1 reverse transcriptase using a pharmacophore model, rigid docking, solvation docking, and MM-PB/SA” (J Med Chem, 2005).

In the assay the test system is Human immunodeficiency virus 1. Kind of assay: Concentration required to inhibit 50% viral production of human immunodeficiency virus type 1 (HIV-1-IIIB). Format: functional, organism-based.
Usually IC50 stands for the concentration that gives 50% inhibition. Take `COc1ccc2c(c1)N(C(=O)OC(C)C)C(CSC)C(S)=N2` (stereo not given): half-maximal inhibition (IC50) required 6 nM.
Under `CN1C(=O)c2ccccc2C1(N)c1ccccc1` (stereo not given) stands 10000 nM; under `CC1=C(C(=O)Nc2ccc(Cl)c(C(=O)OC(C)C)c2)SCCO1`, 42 nM; under `CC1Oc2c3c(c4c(-c5ccccc5)cc(=O)oc4c2C(O)C1C)OC(C)(C)C=C3` (stereo not given), 1400 nM.
As to `CCC1=CC(NCc2nc3c(C)ccc(C)c3o2)C(=O)N=C1C` (stereo not given), the concentration for half-maximal inhibition (IC50) amounted to 50 nM.
Next, `CC(=O)c1ccc(C)cc1NC(C(N)=O)c1c(Br)cccc1Br` (stereo not given): 420 nM.
`Fc1cccc(Cl)c1CCNC(=S)Nc1nccs1` registered a concentration for half-maximal inhibition (IC50) of 50 nM. This IC50 is about 8.4-fold lower than that of the compound before.
Turning to `O=C1Nc2ccc(Cl)cc2[C@@](C#CC2CC2)(C(F)(F)F)N1`, the midpoint of inhibition, the IC50, lay at 0.36 nM.
Under `CC(=O)c1ccccc1NC(C(N)=O)c1c(Cl)cccc1Cl` (stereo not given) stands 26 nM; under `Cc1c(Sc2ccccc2)n(COCCO)c(=S)[nH]c1=O`, 1600 nM.
For `S=C(NCCc1ccccc1)Nc1nccs1`, the half-maximal inhibitory concentration (IC50) was found to be 1300 nM.
As for `C=CCN1Cc2cccc3[nH]c(=O)n(c23)CC1C` (stereo not given), the midpoint of inhibition, the IC50, lay at 62000 nM.
For `O=C1Nc2ccc(Cl)cc2C(/C=C/C2CC2)(C(F)(F)F)N1` (stereo not given), inhibition was half-maximal at 0.4 nM (IC50). In other words, the sub-nanomolar range.
`CCN1c2ncccc2-c2ncc(C)n2-c2ccc(OC)nc21` returned a half-maximal inhibitory concentration (IC50) of 190 nM.
`O=C1c2ccccc2C2(c3ccccc3)SCCN12` (stereo not given) registered an IC50 of 16 nM.
Take `Cc1c(O)nc(OC2CCCCC2)nc1Cc1ccccc1`: the half-inhibitory concentration (IC50) is 4700 nM.
`CC(C)c1c(Cc2ccccc2)n(COCc2ccccc2)c(=O)[nH]c1=O` showed an IC50 of 6 nM. This IC50 lies about 780-fold lower than the previous one.
`CC(C)OC(=O)c1cc(NC(=S)OC(C)C)ccc1Cl` registered an IC50 of 29 nM. This IC50 lies about 4.8-fold higher than the previous one.
As to `CCCCCC=C(c1cc(Br)c(OC)c(C(=O)OC)c1)c1cc(Br)c(OC)c(C(=O)OC)c1`, half-maximal inhibition (IC50) required 16000 nM. This IC50 lies about 550-fold higher than the previous one.
The compound `NC(=O)C(Nc1ccccc1[N+](=O)[O-])c1c(Cl)cccc1Cl` (stereo not given) yielded a half-inhibitory concentration (IC50) of 33 nM.
Compound `CCN1c2cc([N+](=O)[O-])ccc2N(C)C(=O)c2cccnc21` came in with an IC50 of 400 nM.
Next, `Fc1cccc(F)c1CC/N=C(\S)Nc1ccc(Br)cn1`: 10 nM.
`Cc1cc(C)cc(Cc2c(C(C)C)c(=O)[nH]c(=O)n2COCCO)c1` gave an IC50 of 2.7 nM.
For the compound `O=C(O)C1=CC(=C(c2ccc(O)c(C(=O)O)c2)c2ccc(O)c(C(=O)O)c2)C=CC1=O` [AURINTRICARBOXYLIC ACID], 5000 nM corresponded to half-maximal inhibition (IC50).
`CC(C)c1nc(COC(N)=O)n(Cc2ccncc2)c1Sc1cc(Cl)cc(Cl)c1` [CAPRAVIRINE]: 3.1 nM corresponded to half-maximal inhibition (IC50).
In turn, `CC(C)Nc1cccnc1N1CCN(C(=O)c2cc3cc(NS(C)(=O)=O)ccc3[nH]2)CC1` [DELAVIRDINE] returned an IC50 of 1100 nM. This IC50 lies about 350-fold higher than the previous one.
For the compound `O=C1Nc2ccc(Cl)cc2[C@@](C#CC2CC2)(C(F)(F)F)O1` [EFAVIRENZ], the midpoint of inhibition, the IC50, lay at 2.93 nM.
In the case of `CCOCn1c(Cc2ccccc2)c(C(C)C)c(=O)[nH]c1=O` [EMIVIRINE], half-maximal inhibition (IC50) was put at 8 nM.
In turn, `Cc1c(Sc2ccccc2)n(COCCO)c(=O)[nH]c1=O` [HEPT] registered an IC50 of 7000 nM.
Under `CC(=O)c1ccc(C)cc1NC(C(N)=O)c1c(Cl)cccc1Cl` (stereo not given) [LOVIRIDE] stands 100 nM.
Consider `Cc1ccnc2c1NC(=O)c1cccnc1N2C1CC1` [NEVIRAPINE], for which the half-maximal inhibitory concentration (IC50) stood at 200 nM.
`CC(C)=CCN1Cc2cc(Cl)cc3nc(S)n(c23)CC1C` (stereo not given) [TIBO] showed a half-maximal inhibitory concentration (IC50) of 33 nM.
Compound `CC(C)=CCN1Cc2c(Cl)ccc3[nH]c(=S)n(c23)C[C@@H]1C` [TIVIRAPINE] returned an IC50 of 3 nM.
Take `S=C(NCCc1ccccn1)Nc1ccc(Br)cn1` [TROVIRDINE]: half-maximal inhibition (IC50) was put at 20 nM.
For `CC(C)=CCOc1cc(NC(=S)c2ccoc2C)ccc1Cl` [UC 781], half-maximal inhibition (IC50) was put at 9 nM.
